These results are taken from PMC5695136 (Theranostics, 2017).

Molecules are shown by their SMILES.

A short description of data set [1]: First in-human PET/CT imaging. The format is in vivo. Particulars: mean SUV averaged over right and left side and all patients (three patients).
Data set [2] concerns PSMA+ LNCaP cells. The conditions noted are these: equal experimental set up; cited from earlier work.

For `O=C([O-])CN(CCN(CC(=O)[O-])Cc1cc(CCC(=O)NCCCCCC(=O)NCCCC[C@H](NC(=O)N[C@@H](CCC(=O)O)C(=O)O)C(=O)O)ccc1[O-])Cc1cc(CCC(=O)O)ccc1[O-].[68Ga+3].[OH3+]` [[^68Ga]Ga-PSMA-11], the SUV kidneys in data set [1] was determined as 30.5. Moreover, in data set [2], the “Internalization±SD” value is 9.47±2.56 %IA/10^6 cells.
